This note sets out measurements from PMC6835510, “Magnificamide, a β-Defensin-Like Peptide from the Mucus of the Sea Anemone Heteractis magnifica, Is a Strong Inhibitor of Mammalian α-Amylases” (Marine Drugs, 2019).

Bridge positions count the residues as written; N and C are the ends. Ends that are not written are not given here.

The target in the assay is T1, porcine pancreatic α-amylase (PPA) (Sus scrofa, UniProt P00690).
T1 construct: purchased Sigma Aldrich A4268
T1 sequence (P00690 16-511): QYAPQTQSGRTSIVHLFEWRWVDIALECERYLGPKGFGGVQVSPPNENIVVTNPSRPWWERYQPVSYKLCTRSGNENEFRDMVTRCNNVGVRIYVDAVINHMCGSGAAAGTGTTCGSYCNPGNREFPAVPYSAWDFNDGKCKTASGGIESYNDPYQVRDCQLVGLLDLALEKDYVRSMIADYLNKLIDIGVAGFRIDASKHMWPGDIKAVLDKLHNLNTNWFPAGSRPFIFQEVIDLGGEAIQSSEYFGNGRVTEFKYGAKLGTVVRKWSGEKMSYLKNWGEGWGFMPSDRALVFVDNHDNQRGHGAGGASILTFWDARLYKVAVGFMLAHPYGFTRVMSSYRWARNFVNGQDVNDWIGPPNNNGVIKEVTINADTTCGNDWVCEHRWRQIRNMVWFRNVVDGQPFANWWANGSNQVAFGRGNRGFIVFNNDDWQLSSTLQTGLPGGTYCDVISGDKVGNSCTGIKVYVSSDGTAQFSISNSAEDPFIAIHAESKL
Put plainly: Determination of Ki against porcine pancreatic α-amylase (Morrison). In kind it is biochemical. As to conditions: 37 °C, 50 mM sodium phosphate, 100 mM NaCl, pH 7.0; CNPG3 1 mM (KM 0.71 mM), nominal [E] 20 nM; 10 min pre-incubation; 405 nm; Morrison fit, competitive mode assumed; mean ± SE (n = 3). The method, then:
For a quantitative assessment of tight-binding inhibitor potency, Morrison’s method was applied. This method uses the Morrison quadratic equation (Equation (1)) for fitting inhibitor-response data and determining Ki app as a nonlinear regression parameter. (1) υ/υo=1−([E]+[I]+Kiapp)−([E]+[I]+Kiapp)^2−4[E][I]/2[E]o
Kinetic assays were carried out at 37 °C in 50 mM sodium phosphate and 100 mM sodium chloride (pH 7.0). 2-Chloro-4-nitrophenyl-α-maltotrioside (CNPG3) (Sigma Aldrich, St. Louis, MO, USA) was used as the substrate and the optical absorption of the 2-chloro-4-nitrophenol was measured at 405 nm. Reactions were run with final [CNPG3] = 1 mM ([S]/KM = 1.41, KM = 0.71 mM), nominal [E] = 20 nM for PPA, [CNPG3] = 3.3 mM ([S]/KM = 0.97, KM = 3.4 mM), and nominal [E] = 100 nM for HSA to provide sufficient analytical signal. Inhibitor dilution schemes were optimized considering recommendations in [34].
The enzyme was pre-incubated with the inhibitor for 10 minutes before the addition of substrate which launched the reaction. Reactions were monitored on an xMark microplate spectrophotometer (BioRad, USA) in the kinetic mode for 30 min. The initial linear steady state region provided initial rate values for each inhibitor concentration (υ), along with uninhibited rate values (υo). Measurements were run in triplicate. […]

A word on the Ki: it is the equilibrium dissociation constant of an inhibitor or competing ligand from its target. Lower therefore signals higher affinity. With “SEGTSCYIYHGVYGICKAKCAEDMKAMAGMGVCEGDLCCYKTPW (disulfide 6-38, 16-33, 20-39) [r-magnificamide]”, the Ki stood at 0.17 ± 0.06 nM.
